According to patent US20230118142A1, “AGENTS FOR USE IN THE TREATMENT OF TISSUE DAMAGE” (UCL BUSINESS LTD, priority 2020, published 2023):

Experiments:
CRP [1] = molecular target: T1, CRP (Homo sapiens, UniProt P02741); assay: Roche immunoturbidimetric assay: pure CRP; format: binding; parameters: The final concentrations were 0.73 μM native pentameric CRP; from tissue
T1 sequence (P02741 19-224): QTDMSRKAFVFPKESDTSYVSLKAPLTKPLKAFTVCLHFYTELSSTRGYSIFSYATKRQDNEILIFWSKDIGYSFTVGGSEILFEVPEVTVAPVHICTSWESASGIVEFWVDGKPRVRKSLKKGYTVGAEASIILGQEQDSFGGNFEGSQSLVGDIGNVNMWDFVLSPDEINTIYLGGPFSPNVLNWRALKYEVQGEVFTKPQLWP
Method: (i) Human CRP at ˜90 μg/ml (3.9 μM monomer or 0.78 μM pentamer) in TC buffer was prepared from a stock solution; a 75 μl aliquot was used in the assay.
(ii) Compounds were prepared from stock solutions at up to 10 mM in TC (labelled S1). They were serially diluted with TC buffer (100 μl ligand+200 μl TC) to provide up to 9 dilutions, S2-S10. A TC buffer control (S0) was included in each assay.
(iii) A 15 μl volume of each ligand solution was incubated with 75 μl of CRP for 1 h at 37° C. The final concentrations were CRP pentamer=0.73 μM, ligands S1-S10=625-0.03 μM, corresponding to ligand:CRP pentamer ratios of 853-0.04.
(iv) CRP concentrations were measured by the Roche microparticle-enhanced immunoturbidimetric assay (10) on the COBAS MIRA autoanalyser, and results expressed as a percentage of the CRP control.
(v) Data were plotted using Sigmaplot (V14) using the 4 parameter logistic curve y=min+(max−min)/(1+(x/EC50)^−Hill slope) to calculate EC50.
(vii) All compounds were assayed in comparison with a highly purified preparation of BPC8, that was prepared by Carbogen AMCIS AG, dissolved in sterile water and diluted into TC buffer as required.
The immunoturbidimetric CRP assay on the Roche COBAS MIRA Plus autoanalyser, utilises two different sized microparticles that are covalently coupled with two different monoclonal antibodies, which recognise different CRP epitopes. The assay was developed by Roche for clinical measurement of CRP serum and plasma with high sensitivity and a very wide dynamic range. Serendipitously, one of the two antibodies binds to an epitope present on the ligand binding B-face of CRP. Thus, when the binding pocket is occupied by ligand and, especially, when the B-face is occluded by the B-face to B-face interaction of two native CRP pentamers produced by cross linking via our unique bivalent ligands, the assay fails to detect the CRP. In contrast, the CRP is all detected and assayed normally by other assays that disrupt the crosslinking and/or use antibodies which recognise different, non-occluded, epitopes. Inhibition of CRP recognition in the Roche assay is thus a convenient tool to monitor the efficacy and potency of complex formation between our unique ligands and CRP.

[2] = In vivo clearance of ligand; conditions: male, C57BL/6, mouse, serum, 0.5 mg; mice, intravenous; read-out: half-life (t1/2) of ligand in mouse circulation
Method: (i) Ligand (0.5 mg/animal) dissolved in PBS or saline (200 μl) was injected intravenously into the tail vein of six male; 23-27 week old wild-type C57BL/6 mice. Up to two blood samples plus a terminal sample per mouse were collected at each time point up to 180 minutes.
(ii) Serum was prepared and ˜200 ng of internal standard (either ^2H4-BPC6 or BPC9) added. Serum proteins were precipitated with 4 volumes of either ice cold methanol or acetonitrile. The supernatant was dried under vacuum and re-dissolved in 0.1% v/v aqueous formic acid. (iii) Samples were chromatographed on a Phenomenex Aqua column using a gradient of 0.1% v/v formic acid-60% v/v acetonitrile in formic acid, and the eluate passed into the positive ion source of a Quattro II triple quadrupole mass spectrometer. The MRM transitions used were m/z 449.3→390.2 and 453.→394.2 (BPC6) and m/z 477.3→418.3, […] (BPC8).
(iv) Ligand concentrations were measured against an extracted standard curve and were plotted using Sigmaplot (v14) and fitted to a 2-parameter exponential decay.

CRP [3] = molecular target: T1, CRP; parameters: The final concentrations were 0.73 μM native pentameric CRP; from tissue; conditions: rats undergoing coronary artery ligation and receiving human CRP; cited from earlier work
CRP [4] = molecular target: T1, CRP; assay: Rat acute myocardial infarction model (coronary artery ligation) with human CRP; format: in vivo; parameters: The final concentrations were 0.73 μM native pentameric CRP; from tissue; conditions: rats; ischaemia reperfusion and terminal coronary artery ligation; unpublished observations
Source text: Human CRP and activated rat complement were deposited in and around the infarct and the exacerbation of tissue damage was absolutely complement dependent. Similar observations were made in the middle cerebral artery occlusion model of stroke in rats (3).
The design of the first small molecule inhibitor of CRP binding for use in vivo, bis(phosphocholine)hexane (BPC6), enabled conclusive confirmation of the pathogenic role of human CRP in exacerbating tissue damage after ischaemic infarction (4).

CRP [5] = molecular target: T1, CRP; assay: Size exclusion chromatography of CRP/ligand cross linking; format: binding; parameters: The final concentrations were 0.73 μM native pentameric CRP; from tissue
Method: (i) Ligands were diluted to 0.5 mM in TC buffer from up to 10 mM stocks. Serial dilutions were prepared as required. […]
(iii) The complex was chromatographed on a Superdex200 column (10/300 GL; 24 ml bed volume), connected to the ÅKTA100 Explorer HPLC system, and equilibrated and eluted in TC buffer at 0.5 ml/min. Eluates were monitored at 280 nm and fractions (0.5 ml) collected as required.
Size exclusion chromatography on a Superdex 200 column equilibrated and eluted with TC buffer pH 8.0, and calibrated with standard globular marker proteins and with human CRP, the native CRP pentamer (Mr 115 kDa) eluted at 13.9 ml (range 13.7-14.0 ml, n=10).

CRP [6] = molecular target: T1, CRP; assay: In vivo clearance of CRP/ligand complexes generated in vivo in mice; parameters: The final concentrations were 0.73 μM native pentameric CRP; from tissue
Method: (i) Two groups of 8 wild-type C57BL/6 mice (male; 23-27 weeks old) were used: group 1 (control) and group 2 (treated).
(ii) Both groups of animals were given 200 μl of human CRP (5 mg/ml in azide-free TC buffer) subcutaneously on day 1.
(iii) On day 2 (+18 h), control animals were given a 200 μl intravenous bolus of TC buffer. Treated animals were given a 200 μl iv bolus of ligand (prepared at 5 mg/ml in TC buffer).
(iv) One timed blood sample and a terminal blood sample were collected from each mouse into heparinised tubes and weighed. This generated data in quadruplicate at 4 time points, normally 30, 60, 120 and 360 minutes.
(v) ^125I radiolabel was measured (Perkin Elmer Wizard; protocol #1) in whole blood to quantify total CRP. In some cases, electroimmunoassay as above was also used to determine total CRP concentration.
(vi) Plasma was prepared and free CRP determined by Roche immunoassay.
Subcutaneous injection of human CRP provided circulating CRP concentrations with which to test for effects of our ligands in vivo. (Table 4).

CRP [7] = molecular target: T1, CRP; assay: Immobilised phosphocholine plate assay (125I-CRP binding); parameters: The final concentrations were 0.73 μM native pentameric CRP; from tissue; conditions: read-out: IC50 for inhibition of 125I-CRP binding to immobilised phosphocholine
Method: (i) Phosphocholine was immobilised on Greiner NHS-activated microtitre plates by incubation with 4-aminophenyl-1-phosphocholine. Remaining active sites were blocked by incubation with 4% w/v BSA in TC buffer (TCB).
(ii) Human CRP at 1 μg/ml in TC buffer was spiked with ^125I-labelled CRP to provide 10^6 cpm/ml.
(iii) Compounds were prepared from up to 10 mM stock solutions by dilution in TC buffer to 0.5 mM (labelled S1). Serial dilutions were prepared by diluting 100 μl ligand solution with 200 μl TC buffer (S2-S10). A ligand-free control was also used (SO, TC only).
(iv) A 100 μl volume of CRP solution was incubated with 10 μl of each compound (S1-S10, SO) for 1 h at room temperature without stirring, to provide final ligand concentrations across the range 45.5 μM-6.9 nM with a ligand:CRP monomer molar ratio of 1151-0.06. In some cases, single fixed ligand concentrations were also assayed in comparison with PC.
(v) A 100 μl volume of each CRP-ligand mixture was added to the plate wells and incubated for 2 h at room temperature. Solutions were then discarded and the plates washed with TCB buffer. Bound radioactivity was measured (1 min counts) using a gamma counter (Perkin Elmer Wizard 2470).
(vi) Data were plotted with Sigmaplot v14 software using the 4-parameter logistic curve y=min+(max−min)/(1+(x/EC50)^−Hill slope) to calculate IC50.

## C[N+](C)(C)CCOP(=O)([O-])OCCCCCCOP(=O)([O-])OCC[N+](C)(C)C [BPC6, bis(phosphocholine)hexane]
CRP [1]; pure CRP in TC buffer, read-out: IC50 (μM), SD, inhibition of Roche CRP immunoreactivity
  IC50: 4.7 µM
[2]
  half-life: 16.1 min
CRP [3]
  Effect on increased tissue damage caused by human CRP: completely abrogated the increased damage

## C[N+](C)(C)CCOP(=O)(O)OCCCCCCCCOP(=O)(O)OCC[N+](C)(C)C [BPC8, 1,8-bis(phosphocholine)-octane, reference compound]
CRP [4]
  Protective effect against human CRP pathogenicity: same protective effect
CRP [1]
  excess of ligand over CRP pentamer causing 50% reduction of immunoreactivity: 2.5 fold
CRP [5]; CRP/ligand complex re-chromatographed in absence of free ligand
  Stable to rechromatography: No
CRP [5]; native CRP pentamer elutes at 13.9 ml
  CRP elution volume from Superdex 200 after pre-incubation with ligand: 12.6 mL
CRP [6]; i.v. bolus 1 mg 18 h after s.c. CRP
  Time by which Roche value was the same as in control mice: ≤ 3 h
CRP [6]; i.v. bolus 18 h after s.c. CRP (1 mg)
  Effect on detection of circulating CRP in the Roche assay: immediately blocked detection of circulating CRP
[2]
  half-life: 15.4 min
CRP [7]
  IC50: 2.2 µM
